Source: publication PMC8457749, “Design, Synthesis, and Anticancer Activity Evaluation of Hybrids of Azoles and Barbituric Acids” (Iranian Journal of Pharmaceutical Research : IJPR, 2021)

Key:
[1] = test system: HCT116 cell line; design: method as in earlier work; conditions: cited from earlier work
[2] = test system: MCF-7 cell line; design: method as in earlier work; conditions: cited from earlier work
[3] = test system: L02 cells; experiment: Antiproliferative activity against normal cell line L02; format: cell-based; conditions: Homo sapiens, L02, read-out: L02 IC50
Description: The lack of selective cytotoxicity is the main factor that restricts the dose of most conventional chemotherapeutic agents ([21]). […] Selectivity indexes between cancer cells and L02 cells were calculated.

[4] = test system: BEL-7402 cells; experiment: MTT antiproliferative assay, BEL-7402; format: cell-based, human; conditions: for inhibition at 100 µM / IC50: Homo sapiens, Bel-7402, 48 h; for inhibition at 100 µM: read-out: Growth Inhibition at 100 μM (%) BEL-7402; for IC50: read-out: IC50 BEL-7402; for Selectivity index BEL-7402: IC50 on normal cells (L02)/IC50 on tumor cells (BEL-7402)
Description: (§1) The antiproliferative activity of the target compounds against the panel of three different human cancer cell lines, liver (BEL-7402), colorectal (HCT-116), and breast (MCF-7) cell lines was evaluated using a standard MTT-based colorimetric assay. All cell lines were obtained from the Key Laboratory of Natural Resources and Functional Molecules of the Changbai Mountain (Yanbian University) and maintained in Dulbecco’s modified Eagle’s medium (DMEM) and RPMI Media 1640 (RPMI1640), supplemented with 10% foetal bovine serum (FBS) at 37 °C in a humidified atmosphere containing 5% CO2.
(§2) The cells were plated in 96-well plates at appropriate densities to ensure exponential growth throughout the experimental period (9 × 10^3 cells per well) and then allowed to adhere for 24 h. the cells were then treated for 48 h with each compound. After 48 h of incubation, 10 μL of MTT solution was added to each well to a final concentration of 2 mg/mL. the plates were then incubated for a further 4 h. After incubation, the MTT solution was removed and 150 μL of DMSO was added to each well for coloration. The plates were shaken vigorously for 10 min at room temperature to ensure complete solubilisation. The optometric density (OD) was read on a microplate reader (EL × 800, BioTek, Highland Park, Winooski, VT, USA) at 492 nm, and the data were subsequently analysed. The percentage of cell growth inhibition was calculated from the following Equation:
(§3) Inhibitory rate (%) = [1 − (ODtreated − ODblank)/(ODcontrol − ODblank)] × 100%
(§4) To obtain the antiproliferative activity of compounds 3a-3s and 4a-4d, the compounds were selected in the same way with four serial concentrations (1, 10, 50 and 100 μM) of those compounds. The optometric density (OD) reading was then used to calculate the IC50.

[5] = test system: HCT-116 cells; experiment: MTT antiproliferative assay, HCT-116; format: cell-based, human; conditions: for inhibition at 100 µM / IC50: Homo sapiens, HCT-116, 48 h; for inhibition at 100 µM: read-out: Growth Inhibition at 100 μM (%) HCT-116; for IC50: read-out: IC50 HCT-116; for Selectivity index HCT-116: IC50 on normal cells (L02)/IC50 on tumor cells (HCT-116)
Description: as §1, §2, §3, §4

[6] = test system: BEL-7402 cells; experiment: Apoptosis by flow cytometry (annexin V-FITC/PI); format: cell-based, human; conditions: 24 h
Description: Apoptosis was detected using an Apoptosis Detection Kit (Invitrogen, Eugene, OR, USA). Briefly, BEL-7402 cells were cultured in 6-well plates (1.0 × 10^6 cells per well) and incubated at 37 °C for 12 h. Cells with exponential growth were then incubated with compound 3s at different concentrations (5 μM and 20 μM). Following 24 h of incubation, the cells were collected, washed twice with PBS and once with 1 × binding buffer, and then stained with 5 […] and […] (5 mg/mL) in 1 × binding buffer for 30 min at 20 °C in the dark. Apoptotic cells were enumerated using a FACSCalibur flow cytometer with Cell Quest software (Becton–Dickinso, Franklin Lakes, NJ, USA).

[7] = test system: MCF-7 cells; experiment: MTT antiproliferative assay, MCF-7; format: cell-based, human; conditions: for inhibition at 100 µM / IC50: Homo sapiens, MCF7, 48 h; for inhibition at 100 µM: read-out: Growth Inhibition at 100 μM (%) MCF-7; for IC50: read-out: IC50 MCF-7; for Selectivity index MCF-7: IC50 on normal cells (L02)/IC50 on tumor cells (MCF-7)
Description: as §1, §2, §3, §4

[8] = test system: HCT116 cancer cells; design: method as in PMID 30981113; conditions: HCT116 cancer cells ref 11; read-out: IC50 anti-proliferative activity HCT116; cited from earlier work

| SMILES | IC50 [1] [µM] | IC50 [2] [µM] | IC50 [3] [µM] | inhibition at 100 µM [4] [%] | IC50 [4] [µM] | Selectivity index BEL-7402 [4] | inhibition at 100 µM [5] [%] | IC50 [5] [µM] | Selectivity index HCT-116 [5] | early-stage apoptosis rate (LR) ([6]; 5 μM) [%] | late-stage apoptosis rate (UR) ([6]; 5 μM) [%] | dead cells (UL) ([6]; 20 μM) [%] | early-stage apoptosis rate (LR) ([6]; 20 μM) [%] | late-stage apoptosis rate (UR) ([6]; 20 μM) [%] | inhibition at 100 µM [7] [%] | IC50 [7] [µM] | Selectivity index MCF-7 [7] | IC50 [8] [µM] | melting point [°C] |
| --- | --- | --- | --- | --- | --- | --- | --- | --- | --- | --- | --- | --- | --- | --- | --- | --- | --- | --- | --- |
| CC1=NN=C(C)C1=NNc1sc2c(c1C(N)=O)CCCCC2 [D] | 31.1 | 22.7 |  |  |  |  |  |  |  |  |  |  |  |  |  |  |  |  |  |
| O=C1NC(=O)C(=Cc2cn(-c3ccc(C(F)(F)F)cc3)nn2)C(=O)N1 [Compound 3s, 5-((1-(4-(trifluoromethyl)phenyl)-1H-1,2,3-triazol-4-yl)methylene)pyrimidine-2,4,6(1H,3H,5H)-trione] |  |  | 82.2 ± 4.8 | 95.3 ± 4.9 | 4.02 ± 0.5 | 20.45 | 62.9 ± 1.9 | 21.5 ± 1.19 | 3.82 | 1.33 | 4.94 | 27.40 | 3.37 | 35.78 | 90.4 ± 5.3 | 8.98 ± 0.99 | 9.15 |  |  |
| C=C1C(=O)[C@]23[C@H](OC(=O)c4cn(-c5ccc(OC)cc5)nn4)[C@H]1CC[C@H]2[C@@]12CO[C@]3(O)[C@@H](O)[C@@H]1C(C)(C)CC[C@@H]2O [Compound C] |  |  |  |  |  |  |  |  |  |  |  |  |  |  |  |  |  | 1.94 |  |
| C=C1C(=O)[C@]23[C@H](O)[C@H]1CC[C@H]2[C@@]12CO[C@]3(O)[C@@H](O)[C@@H]1C(C)(C)CC[C@@H]2O [oridonin] |  |  |  |  |  |  |  |  |  |  |  |  |  |  |  |  |  | 6.84 |  |
| O=C1NC(=O)C(=Cc2cn(-c3cccc(Cl)c3)nn2)C(=O)N1 [Compound 3f, 5-((1-(3-chlorophenyl)-1H-1,2,3-triazol-4-yl)methylene)pyrimidine-2,4,6(1H,3H,5H)-trione] |  |  | 93.9 ± 5.9 | 75.2 ± 3 | 15.9 ± 1.32 | 5.89 | 79.3 ± 5.6 | 14.9 ± 0.55 | 6.28 |  |  |  |  |  | 58 ± 3.2 | 29.1 ± 0.34 | 3.22 |  | 250 |
| O=C1NC(=O)C(=Cc2cn(-c3cc(Cl)ccc3Cl)nn2)C(=O)N1 [Compound 3h, 5-((1-(2,5-dichlorophenyl)-1H-1,2,3-triazol-4-yl)methylene)pyrimidine-2,4,6(1H,3H,5H)-trione] |  |  | 78.8 ± 3.9 | 82.1 ± 3.2 | 9.49 ± 1.78 | 8.30 | 81.2 ± 4.2 | 18.9 ± 1.97 | 4.17 |  |  |  |  |  | 92.2 ± 8.5 | 75.9 ± 1.98 | 1.04 |  | 250 |
| O=C1NC(=O)C(=Cc2cn(-c3ccc(Cl)cc3)nn2)C(=O)N1 [Compound 3g, 5-((1-(4-chlorophenyl)-1H-1,2,3-triazol-4-yl)methylene)pyrimidine-2,4,6(1H,3H,5H)-trione] |  |  | 80.2 ± 6 | 46.6 ± 4.6 | > 100 |  | 68.5 ± 4.6 | 9.59 ± 1.01 | 8.36 |  |  |  |  |  | 23.9 ± 2.9 | > 100 |  |  | 250 |
